Measured values reported in PMC7878891 (Scientific Reports, 2021).

Columns and labels:
[1] = molecular target: PL^proCoV2 (recombinant SARS-CoV-2 PL^pro) (Severe acute respiratory syndrome coronavirus 2, UniProt P0DTD1); type: biochemical; settings: for IC50: read-out: IC50 toward PL^proCoV2
[2] = molecular target: PL^proSARS (recombinant SARS-CoV-1 PL^pro) (Severe acute respiratory syndrome coronavirus, UniProt P0C6X7); test: biochemical; type: biochemical
PL^proCoV2 = PL^proCoV2 (Severe acute respiratory syndrome coronavirus 2, UniProt P0DTD1); type: biochemical, SARS-CoV-2
PL^proSARS = PL^proSARS (Severe acute respiratory syndrome coronavirus, UniProt P0C6X7); type: biochemical, SARS-CoV-1
CoV2 = settings: read-out: EC50 antiviral activity in cell-based assay; cited from earlier work

## O=c1c2ccccc2[se]n1-c1ccccc1 [ebselen, 2-Phenyl-1,2-benzisoselenazol-3(2H)-one]
[1]
  Mechanism of inhibition of PL^proCoV2: irreversible
[2]
  Mechanism of inhibition of PL^proSARS: irreversible
[2]; IC50 PL^proSARS 60 min incubation
  IC50: 8.45 ± 0.96 µM
[2]; IC50 PL^proSARS no incubation
  IC50: > 200 µM
PL^proCoV2
  Reactivation of PL^proCoV2 after dialysis: reactivation was not observed
PL^proSARS
  Reactivation of PL^proSARS after dialysis: reactivation was not observed
CoV2
  EC50: 4.67 µM

## COc1ccccc1-n1[se]c2ccccc2c1=O [1e, 2-(2-Methoxyphenyl)-1,2-benzisoselenazol-3(2H)-one]
[1]
  Inhibition of PL^proCoV2 at 2 μM: fully
  IC50: 0.256 ± 0.035 µM

## COc1ccccc1NC(=O)c1ccccc1[Se][Se]c1ccccc1C(=O)Nc1ccccc1OC [2e, Bis[2-(2-methoxyphenylcarbamoyl)phenyl] diselenide]
[1]
  IC50: 0.263 ± 0.121 µM

## O=C(Nc1ccccc1O)c1ccccc1[Se][Se]c1ccccc1C(=O)Nc1ccccc1O [2d, Bis[2-(2-hydroxyphenylcarbamoyl)phenyl] diselenide]
[1]
  IC50: 0.339 ± 0.109 µM

## O=c1c2ccccc2[se]n1-c1ccccc1O [1d, 2-(2-Hydroxyphenyl)-1,2-benzisoselenazol-3(2H)-one]
[1]
  Inhibition of PL^proCoV2 at 2 μM: fully
  IC50: 0.236 µM
